Read-outs that look alike come from different tables or passages of the source.
What was measured:
ALDH1A1 = target: T1, ALDH1A1 (Homo sapiens, UniProt P00352); assay: ALDH1A1 aldehyde oxidation (dehydrogenase) activity assay, NADH formation at 340 nm; format: biochemical
T1 construct: made in house
T1 sequence (P00352 1-501): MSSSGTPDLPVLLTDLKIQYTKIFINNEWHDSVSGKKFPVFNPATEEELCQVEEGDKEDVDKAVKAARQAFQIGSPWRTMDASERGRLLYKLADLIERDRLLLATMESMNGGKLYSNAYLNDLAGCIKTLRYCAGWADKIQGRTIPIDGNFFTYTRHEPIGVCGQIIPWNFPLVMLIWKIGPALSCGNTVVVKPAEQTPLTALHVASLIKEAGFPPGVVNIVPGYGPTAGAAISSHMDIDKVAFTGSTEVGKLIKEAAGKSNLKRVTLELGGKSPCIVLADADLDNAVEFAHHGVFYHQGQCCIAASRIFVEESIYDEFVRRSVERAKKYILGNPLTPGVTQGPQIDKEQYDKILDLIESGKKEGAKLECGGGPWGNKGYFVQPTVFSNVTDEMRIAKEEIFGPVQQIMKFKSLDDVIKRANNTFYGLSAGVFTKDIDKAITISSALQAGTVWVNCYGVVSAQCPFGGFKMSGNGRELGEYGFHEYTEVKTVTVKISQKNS

ALDH3A1 = target: T2, ALDH3A1 (Homo sapiens, UniProt P30838); assay: ALDH3A1 benzaldehyde oxidation activity assay; format: biochemical; conditions: Table 4; NI/NI(A) at 100 μM compound; read-out: IC50 in μM (SE) ALDH3A1
T2 construct: made in house
T2 sequence (P30838 1-453): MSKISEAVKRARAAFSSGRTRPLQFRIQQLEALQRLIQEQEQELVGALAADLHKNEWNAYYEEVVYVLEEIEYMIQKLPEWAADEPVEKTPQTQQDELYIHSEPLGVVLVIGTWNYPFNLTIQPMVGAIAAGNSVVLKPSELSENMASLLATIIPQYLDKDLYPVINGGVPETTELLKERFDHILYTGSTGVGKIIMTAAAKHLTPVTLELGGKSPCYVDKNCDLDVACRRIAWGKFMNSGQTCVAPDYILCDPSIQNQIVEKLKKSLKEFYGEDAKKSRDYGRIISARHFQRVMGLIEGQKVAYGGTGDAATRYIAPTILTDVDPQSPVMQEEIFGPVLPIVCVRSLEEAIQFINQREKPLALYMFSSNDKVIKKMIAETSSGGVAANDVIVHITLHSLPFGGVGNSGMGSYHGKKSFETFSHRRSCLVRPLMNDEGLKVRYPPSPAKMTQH
Description: Hits from the HTS were ordered from ChemDiv to determine if they had any effect on aldehyde oxidation and whether they were selective for ALDH1A1 compared to ALDH2 and ALDH3A1. Dehydrogenase activity of the three isoenzymes were assayed by monitoring the production of NADH at 340 nm (molar extinction coefficient of 6220 M^−1 cm^−1) on a Beckman DU-640 or Cary 300 Bio UV-Vis spectrophotometer for 2 to 3 minutes. For ALDH1A1 and ALDH2, the reaction contained 100-200 nM enzyme, 200 μM NAD^+, 100 μM propionaldehyde, and 1% DMSO in 50 mM Na^+ BES, pH 7.5 at room temperature. For ALDH3A1, the reaction contained 20 nM enzyme, 200 μM NAD^+, 300 μM benzaldehyde, and 1% DMSO in either 100 mM sodium phosphate or 50 mM Na^+ BES at pH 7.5 at room temperature.
For most compounds, 20 μM concentration was used for the selectivity assays. […] Following a 2 minute incubation of enzyme, compound, and NAD^+, the reaction was initiated by adding substrate. […] Data were fit to the four parameter EC50 equation using SigmaPlot (StatSys v12.3).
Dehydrogenase activity of purified recombinant ALDH1A1, ALDH1A2, ALDH1A3, ALDH1B1, ALDH2, and ALDH3A1 was assayed spectrophotometrically by monitoring the formation of NADH at 340 nm (molar extinction coefficient of 6220 M^−1 cm^−1) on a Beckman DU-640 or Cary 300 Bio UV-Vis spectrophotometer. Characterization of ALDH1A1 WT and ALDH1A1 G458N were performed by co-varying acetaldehyde and NAD^+ concentrations in reactions containing 150-300 nM enzyme, 50-500 μM or 20-200 μM acetaldehyde, and 50-500 μM NAD^+ in 50 mM sodium BES, pH 7.5 at 25° C. Reactions were initiated by adding enzyme. Selectivity of compounds for dehydrogenase activity of ALDH1A1, ALDH1A2, ALDH1A3, ALDH1B1 and ALDH2 were measured in a solution containing 100-200 nM enzyme, 200 μM NAD^+, 1% DMSO, and 100 μM propionaldehyde (non-saturating for all enzymes tested, except ALDH2) in 50 mM sodium BES. ALDH3A1 activity was measured under the following conditions: 25 nM enzyme, 200 μM NAD^+, 1% DMSO, and 300 μM benzaldehyde (˜KM) in either 100 mM sodium phosphate buffer, pH 7.5 or 50 mM sodium BES, pH 7.5. All assays were performed at 25° C. and were initiated by the addition of the aldehyde substrate following a 2 minute pre-incubation with compound and cofactor. Selectivity was initially tested using 20 μM compound, with ALDH1A1-selective modulators further tested using 100 μM compound. […] After a 2 minute pre-incubation with compound and NAD^+, all reactions were initiated by the addition of propionaldehyde. Data were fit to the four parameter EC50 equation using SigmaPlot (StatSys v12.3). The values represent the average of three independent experiments (each n=3). The mode of inhibition was determined via steady-state kinetics by co-varying inhibitor and substrate concentrations at fixed concentration of the second substrate. All reactions contained 100-150 nM ALDH1A1 and 1% DMSO in 50 mM sodium BES, pH 7.5 at 25° C. […] All data were fit to competitive, noncompetitive, uncompetitive, and mixed inhibition models using both single substrate-single inhibitor or tight binding inhibition programs in SigmaPlot (StatSys v12.3). The appropriate model was selected through analysis of goodness-of-fit and the residuals of those fits. The values represent the average of three independent experiments (each n=3) using at least two protein preps.
ALDH1A1, ALDH1A2, ALDH1A3, ALDH2, and ALDH3A1 were produced and purified as previously described. A highthroughput screen (HTS) of 64,000 compounds from the ChemDiv Corp. was performed to identify activators and inhibitors of ALDH1A1. The hydrolysis of para-nitrophenylacetate was used as a measure ALDH1A1 activity (see SM). Selectivity for closely related orthologs was tested at 20 and 100 μM using purified recombinant human ALDH1A1, ALDH1A2, ALDH1A3, ALDH2, and ALDH3A1. […]

ALDH1A2 = target: T3, ALDH1A2 (Homo sapiens, UniProt O94788); assay: biochemical; format: biochemical; conditions: Table 4; NI/NI(A) at 100 μM compound; read-out: IC50 in μM (SE) ALDH1A2
T3 sequence (O94788 1-518): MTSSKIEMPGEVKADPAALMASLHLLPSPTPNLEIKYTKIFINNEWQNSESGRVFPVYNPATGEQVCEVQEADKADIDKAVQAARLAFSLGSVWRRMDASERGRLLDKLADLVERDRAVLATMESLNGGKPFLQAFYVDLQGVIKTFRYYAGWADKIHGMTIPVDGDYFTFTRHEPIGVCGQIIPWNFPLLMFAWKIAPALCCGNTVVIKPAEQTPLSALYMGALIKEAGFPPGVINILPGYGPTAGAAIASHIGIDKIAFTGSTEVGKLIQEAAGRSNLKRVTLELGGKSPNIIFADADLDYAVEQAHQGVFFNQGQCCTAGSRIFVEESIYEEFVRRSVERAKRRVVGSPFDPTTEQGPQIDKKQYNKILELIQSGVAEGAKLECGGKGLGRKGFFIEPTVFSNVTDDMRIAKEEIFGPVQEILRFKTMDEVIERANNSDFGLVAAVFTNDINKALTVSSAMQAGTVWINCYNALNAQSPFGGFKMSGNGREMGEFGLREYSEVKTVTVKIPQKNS

IGROV1 cells = assay: Spheroid formation under low attachment culture conditions; format: cell-based, human; conditions: 50 μM, 7 days, low attachment
Description: Ovarian cancer cell lines or primary cells were seeded at a concentration of 25,000 cells/ml in Mammocult complete medium (StemCell Technologies) and ultra-low attachment plates (Corning, Corning, N.Y.). Spheroids were trypsinized every 7 days and re-plated to generate successive generations. To observe spheroid morphology, A2780, SKOV3, IGROV1, and primary cells were cultured in a rotating bioreactor (Synthecon, Houston, Tex.) until […] compact spheroids were visible (10-30 days). They were harvested, preserved with Histochoice MB Tissue Fixative (Amresco, Solon, Ohio) for 1 hour, and embedded in Immuno-bed resin (Polysciences, Warrington, Pa.). Two micron thick sections were cut on an ultramicrotome and stained with 0.1% methylene blue/0.15% basic fuchsin in 50% methanol.
Cell viability was measured by the trypan blue (ThermoScientific) exclusion test. Cell proliferation was quantified by the MTT assay. Spheroids were counted after centrifugation at 300×g for 5 minutes. All assays were performed in four replicates. Data are presented as means±SEM.

[1] = 100 μM propionaldehyde, 200 μM NAD+, mean/SEM of three independent assays, read-out: IC50 values with ALDH1A1 for compounds that inhibit dehydrogenase activity
[2] = list of inhibitors in summary and description, read-out: IC50 with the listed inhibitors of ALDH1A1 activity

Row | IC50 (ALDH1A1; [1]) | IC50 (ALDH1A1; [2]) | SMILES | also measured
1 | 2.5 µM | 2.5 µM | COc1ccc(S(=O)(=O)N2N=C(c3cccc(NS(C)(=O)=O)c3)CC2c2ccco2)cc1 (stereo not drawn) [CM045] | 
2 | 0.31 µM | 0.31 µM | Cc1cc(C)c(S(=O)(=O)Nc2ccc(O)c(Cl)c2)cc1C [CM047] | 
3 | 3.5 µM | 3.5 µM | CN1CCN(C(=O)c2ccc3c(c2)N(Cc2ccccc2)CCS3)CC1 [CM306] | 
4 | 0.57 µM | 0.57 µM | Cc1ccc(S(=O)(=O)NCC2CCC(C(=O)NCc3ccco3)CC2)cc1 (stereo not drawn) [CM307] | 

More lines, now with the values behind:

Row | SMILES | IC50 (ALDH1A1; [1]) | IC50 (ALDH1A1; [2]) | also measured
5 | Cc1ccc(-c2nnc(N3CCN(C)CC3)c3ccccc23)cc1C [CM001] | 1.1 µM | 1.1 µM | 
6 | CCOc1cc(S(=O)(=O)NCc2cccnc2)c(C)cc1C [CM009] | 5.3 µM | 5.3 µM | 
7 | C=CCc1cccc(CNc2nc3ccccc3n2CCC)c1O [CM010] | 1.3 µM | 1.3 µM | 
8 | CCC(C)NC(=O)C1(O)c2cc(Br)ccc2NC(O)N1c1ccc(Cl)cc1 (stereo not drawn) [CM020] | 0.45 µM | 0.45 µM | 
9 | Cc1ccc(Cn2c(CN3CCN(c4ccccc4)CC3)nc3c2c(=O)n(C)c(=O)n3C)cc1 [CM025] |  |  | IC50 (ALDH3A1): > 100 µM
10 | CCN1CCN(Cc2nc3c(c(=O)n(C)c(=O)n3C)n2CC(=O)c2ccccc2)CC1 [CM027] |  |  | IC50 (ALDH1A1; Table 4, NI/NI(A) at 100 μM compound, * <70% maximum inhibition, read-out: IC50 in μM (SE) ALDH1A1): 6.1 µM
11 | NC(=O)CSc1nc2c(sc3ccccc32)c(=O)n1CCCN1CCCC1 [CM037a] | 23 µM |  | 
12 | Cc1nc2ccccc2c2oc(C(=O)N3CCCCC3)cc12 [CM038] | 0.26 µM | 0.26 µM | IC50 (ALDH1A1; propionaldehyde oxidation, values in nM, read-out: IC50 with ALDH1A1): < 0.3 µM
13 | CC(C)CCn1c(CN2CCC(C(N)=O)CC2)nc2c1c(=O)n(C)c(=O)n2C [CM053] |  |  | IC50 (ALDH3A1): > 100 µM
14 | Cc1cccc(Cn2c(CN3CCN(C(=O)c4ccco4)CC3)nc3c2c(=O)n(C)c(=O)n3C)c1 [CM055] |  |  | IC50 (ALDH1A2): > 100 µM; IC50 (ALDH3A1): > 100 µM
15 | CC(C)CCn1c(CN2CCC(C)CC2)nc2c1c(=O)n(C)c(=O)n2C [CM057] |  |  | IC50 (ALDH3A1): > 100 µM
16 | CCN(CC)c1ccc(C=O)cc1 [DEAB, diethylaminobenzaldehyde, reference compound] |  |  | formation of spheres (IGROV1 cells): completely inhibited

— US20150306108A1, “COMPOSITIONS OF ALDH1A1 INHIBITORS AND METHODS OF USE IN TREATING CANCER” (Indiana University Research & Technology Corporation, priority 2014, published 2015)
